The subject of assay [1] is panel of 20 trained panellists. The experiment in a line: Intrinsic sweetness: concentration in water equally sweet as a 1.5% sucrose solution. The assay is classed as in vivo. Particulars: no significant difference (p<0.05) to 1.5% sucrose. On the procedure:
Compounds 9, 41, 57, 73 and 89 were provided as described in Example 3 and purified to >95% with preparative chromatography. The obtained compounds were used for sensory evaluations.
The intrinsic sweetness of the compounds was determined by a panel of 20 trained panellists. The intrinsic sweetness of a compound is determined by evaluating the sweetness of the compound at different concentrations in water against a 1.5% sucrose solution.
A mixture of butanoylated HG and a mixture of pentanoylated HG were provided as described in Example 3.
The intrinsic sweetness was determined as described in Example 4. As shown in the table, the concentrations of the acylated compounds, which represent equal sweetness as the 1.5% sucrose solution, are approximately ⅕ to ⅛ of the required concentration of HG (non-acylated). Thus, acylation of HG provides a strong increase of the intrinsic sweetness.

Assay [2] has as its system trained flavourist panel. The experiment in a line: Sensory profile (impact, intensity, mouthfeel, lingering sweetness) of 5% sucrose solution with added compound. The assay is classed as in vivo. Particulars: for Lingering sweetness / Impact / Intensity / Mouthfeel: 5% sucrose solution (A1) + HG 50 ppm, compound 9 15 ppm, 41 5 ppm, 57 3 ppm, 73 5 ppm, 89 5 ppm; for Lingering sweetness: sucrose alone scores 1; for Impact: sucrose alone scores 3; for Intensity / Mouthfeel: sucrose alone scores 4. On the procedure: A 5% sucrose solution was prepared. Compounds 9, 41, 57, 73 and 89 were provided as described in Example 3 and purified to >95% with preparative chromatography.
The sensory profile of the sucrose solution (control) and the sucrose solution including HG (control), compounds 9, 41, 57, 73 or 89 was determined by a trained flavourist panel comparing the impact, intensity and mouthfeel.

In assay [3] the test system is trained sensory panel (n=20). The experiment in a line: Paired comparison tests (Duo test): sweetness increase of 5% sucrose solution in water. Also on record: unit not given here. The note with it: dosage HG 50, compound 9 10, 41 5, 57 3, 73 5, 89 5 mg/kg. The format is in vivo. On the procedure:
The sensory impact of the compounds 9, 41, 57, 73 and 89 on a 5% sucrose solution in water was analysed by a trained sensory panel (n=20) using a series of paired comparison tests (Duo test). The samples were coded and randomized.

Assay [4] has as its system panel of five flavorists (n=5). Kind of assay: Taste descriptors (scale 0-9) of sugar base with sweet tasting / sweet taste modulating substances, without (A) and with (B) compound 41 or 57. The format is in vivo. The note with it: scale 0-9. On the procedure: A sugar base (5% sucrose+0.1% citric acid) was provided. Further, the sweet tasting substances RS (20% Rubusoside), SG (90% steviol oligoglucosides), HC (8% Hesperetin dihydrochalcone), LHG (52% mogroside V) and the sweet taste modulating substances PD (>95% Phyllodulcin), HT (>85% Hesperetin) and PH (>98% Phloretin) were provided and added to the sugar base to produce different samples (A).
A dose of 2 mg/kg compound 41 or, respectively, 1.2 mg/kg compound 57 was added to the samples to obtain samples (B).
Different taste descriptors were compared between the respective samples (A) and (B) by a panel of five flavorists (n=5) using a scale of 0-9.
The panelists were asked to neutralize with tap water between each sample and the intensity of the descriptors of each sample were defined before tasting the next sample. The tasting of each RS, SG, HC, LHG, PD, HT or PH (samples (A)) were followed by the samples with added RS, SG, HC, LHG, PD, HT or PH+compound (41 or 57) (samples (B)) with each being compared to the intensities of the base.

The test system of assay [5] is panel of five flavorists (n=5). The experiment in a line: Sweet taste modulation in lemonade bases with reduced sugar content, descriptor intensities 0-9. The format is in vivo. Particulars: 5 mg/kg compound 41 or 3 mg/kg compound 57, intensity 0-9. On the procedure:
A dose of 5 mg/kg compound 41 or, respectively, 3 mg/kg compound 57 were applied to different sugar reduced lemonade bases to restore the overall and sweet taste of the respective matrix with reduced sugar content. Different descriptors were determined by a panel of five flavorists (n=5) and given as intensities from 0-9.
The lemonade bases were “full sugar”, “sugar reduced”, “Stevia Hybride”, “Sugar free base Suc/Ace K” and “Sugar free base Asp/Ace K” with the following recipes: […]

For assay [6] the following is noted: cited from earlier work.
The mark [7] stands for this setting: difference between sample B (+2 mg/kg compound 41) and sample A.
Where [8] appears, read: lemonade base "Sugar free base Asp/Ace K".
Where [9] appears, read: lemonade base "Sugar free base Suc/Ace K".
Where [10] appears, read: difference between sample B (+1.2 mg/kg compound 57) and sample A.

Molecules are shown by their SMILES.

Consider `COc1ccc(CCC(=O)c2c(O)cc(O[C@@H]3O[C@H](COC(C)=O)[C@@H](O)[C@H](O)[C@H]3O)cc2O)cc1O` [Compound 9, 6″-O-Acetyl-HG], for which, in assay [1], the “Concentration of equal sweetness as 1.5% sucrose control” value (“Concentration … as 1.5% sucrose control” below) amounted to 15 mg/kg. Also, in assay [2], the Lingering sweetness is recorded as 2, the Impact stood at 3, the Intensity is on record as 4-5 and the Mouthfeel is given as 4-5. For the same compound, in assay [3], the Increase of sweetness was found to be 33.1.
With `CCCC(=O)OC[C@H]1O[C@@H](Oc2cc(O)c(C(=O)CCc3ccc(OC)c(O)c3)c(O)c2)[C@H](O)[C@@H](O)[C@@H]1O` [Compound 41, 6″-O-Butanoyl-HG], the “Concentration … as 1.5% sucrose control” value in assay [1] is on record as 5 mg/kg. In assay [2], the Lingering sweetness is listed as 2-3, the Impact was 4-5, the Intensity is 5-6 and the Mouthfeel stood at 5. Besides, the Increase of sweetness in assay [3] turned out to be 24.4. Also, in assay [4] (setting [7]), the “Lingering sweetness (0-9), Δ (B-A)” value was 1.0 and the “Mouthfeel (0-9), Δ (B-A)” value amounted to 1.0. In assay [5] (lemonade base "Stevia Hybrid"), this compound returned a Lingering sweetness of 1, a Mouthfeel of 4.5, an Onset of 4 and an Overall sweetness of 5.5. In assay [5] (setting [8]), this compound displayed a Lingering sweetness of 2.5, a Mouthfeel of 3.5, an Onset of 4 and an Overall sweetness of 5. Besides, in assay [5] (setting [9]), the Lingering sweetness was 3, the Mouthfeel came out at 2, the Onset stood at 2.5 and the Overall sweetness is on record as 4.5. In assay [5] (lemonade base "Sugar reduced"), this compound returned a Lingering sweetness of 0.5, a Mouthfeel of 3.5, an Onset of 4 and an Overall sweetness of 4.5.
As to `CCCCC(=O)OC[C@H]1O[C@@H](Oc2cc(O)c(C(=O)CCc3ccc(OC)c(O)c3)c(O)c2)[C@H](O)[C@@H](O)[C@@H]1O` [Compound 57, 6″-O-Pentanoyl-HG], the “Concentration … as 1.5% sucrose control” value in assay [1] was 3 mg/kg. Moreover, in assay [2], the Lingering sweetness amounted to 3, the Impact is recorded as 4-5, the Intensity is on record as 5-6 and the Mouthfeel turned out to be 5. The same compound had an Increase of sweetness in assay [3] of 25.2. Further, in assay [4] (setting [10]), the “Lingering sweetness (0-9), Δ (B-A)” value is on record as 1.0; the “Mouthfeel (0-9), Δ (B-A)” value worked out at 0.5; the “Onset sweetness (0-9), Δ (B-A)” value is on record as 0.5; the “Overall sweetness (0-9), Δ (B-A)” value was determined as 1.0. In assay [5] (lemonade base "Stevia Hybrid"), this compound gave a Lingering sweetness of 2.5, a Mouthfeel of 5, an Onset of 4 and an Overall sweetness of 6. Further, in assay [5] (setting [8]), the Lingering sweetness is listed as 3.5, the Mouthfeel worked out at 3.5, the Onset came to 3.5 and the Overall sweetness is given as 5. In addition, in assay [5] (setting [9]), the Lingering sweetness was determined as 4, the Mouthfeel is given as 2.5, the Onset was determined as 3 and the Overall sweetness was found to be 5. For the same compound, in assay [5] (lemonade base "Sugar reduced"), the Lingering sweetness is on record as 2, the Mouthfeel is on record as 4, the Onset is 4 and the Overall sweetness worked out at 4.5.
Turning to `CCCCCC(=O)OC[C@H]1O[C@@H](Oc2cc(O)c(C(=O)CCc3ccc(OC)c(O)c3)c(O)c2)[C@H](O)[C@@H](O)[C@@H]1O` [Compound 73, 6″-O-Hexanoyl-HG], the “Concentration … as 1.5% sucrose control” value in assay [1] is reported as 5 mg/kg. In assay [2], the Lingering sweetness is given as 3-4, the Impact is 4-5, the Intensity is reported as 6-7 and the Mouthfeel came to 5. This compound registered an Increase of sweetness in assay [3] of 23.1.
For the compound `CCCCCCC(=O)OC[C@H]1O[C@@H](Oc2cc(O)c(C(=O)CCc3ccc(OC)c(O)c3)c(O)c2)[C@H](O)[C@@H](O)[C@@H]1O` [Compound 89, 6″-O-Heptanoyl-HG], in assay [1], the “Concentration … as 1.5% sucrose control” value was determined as 5 mg/kg. In assay [2], the Lingering sweetness is 3-4, the Impact is given as 4-5, the Intensity is 6-7 and the Mouthfeel turned out to be 5. Moreover, the Increase of sweetness in assay [3] worked out at 27.7.
`COc1ccc(CCC(=O)c2c(O)cc(O[C@H]3O[C@@H](CO)[C@H](O)[C@@H](O)[C@@H]3O)cc2O)cc1O` [HG, hesperetin dihydrochalcone-4′-O-β-d-glucoside, reference compound]: the “Concentration … as 1.5% sucrose control” value in assay [1] is 50 mg/kg. In addition, the “effect on impact, intensity and mouthfeel of the sucrose solution” value in assay [2] (5% sucrose solution) is “increases the impact, intensity and mouthfeel”. Moreover, in assay [2], the Lingering sweetness turned out to be 2, the Impact turned out to be 4, the Intensity worked out at 5 and the Mouthfeel is 4-5. The same compound showed an Increase of sweetness in assay [3] of 34.6. For the same compound, in assay [6] (5 mg/kg HG in water), the “sweet taste of HG in water” value is listed as “does not taste sweet”. The isosweet sucrose concentration in assay [6] (10 mg/kg HG in water) is given as 0.5%. Besides, the “isosweet sucrose solution concentration” value in assay [6] (20 mg/kg HG in water) is 1%.

(Values after patent publication US20260283205A1, “ACYLATED DIHYDROCHALCONES, METHODS OF PRODUCTION AND USES THEREOF” (SYMRISE AG, priority 2023, published 2026).)
